Entries after “also recorded” stand apart in the source; their conditions may differ. Where two headings read alike, the source gives them in different places.
Key:
[1] = Physical properties of the compound (heating, solubility, hygroscopicity, pH of solution); assay type: physicochemical
Description: The compound according to the invention is a crystalline powder, having a colour from white with tints of green-yellow to light-yellow with green hues; a bitter in taste, odourless. The melting point of the compound is not characteristic.
The solution containing 1 g of the compound in 1450 ml of water at 25° C. has pH of 4.37 (potentiometrically).

[2] = system: influenza A/B viruses; assay type: cell-based
[3] = system: influenza viruses; assay: Virucidal action on influenza viruses
[4] = Maximum tolerable concentration for chick embryo fibroblasts; assay type: cell-based; conditions: chicken
[5] = Long-term per os toxicity, guinea pigs; assay type: in vivo; conditions: per os 100 to 125 mg/kg over 3 months
[6] = Long-term per os toxicity, rabbits; assay type: in vivo; conditions: per os 50 mg/kg during 2 months
[7] = Long-term per os toxicity, dogs; assay type: in vivo; conditions: per os 25 mg/kg over 6 months
[8] = Localized irritant action in oral administration (hystological tests); assay type: in vivo
[9] = Allergizing effect, guinea pigs; assay type: in vivo; conditions: subcutaneous injections and repeated skin applications
[10] = Allergizing effect, rabbits; assay type: in vivo; conditions: subcutaneous injections and repeated skin applications
[11] = system: Salmonella typhimurium; assay: Mutagenic activity on Salmonella typhimurium; conditions: 50 to 1000 μm per disk
[12] = system: influenza A/B virus; assay: Clinical trial against influenza A/B virus infection; assay type: in vivo, human; conditions: hydrochloride monohydrate
Description: The clinical checking of the preparation was performed in comparison to control groups o patients which were taken a symptomatic treatment.

[13] = system: interferon; assay type: cell-based, hen; conditions: 20 µg/ml
[14] = system: interferon; assay: Interferon induction in mouse blood serum; assay type: in vivo, mice
[15] = system: influenza A virus (Bethezda) 63 (H2 N2), A (Aichi) (H3 N2); assay: Preventive action in mouse influenzal pneumonia; assay type: in vivo, mice; conditions: for The decrease of lethality: P <0.01; for Lethality: absolute animal number: dead/total
Description: Its preventive effect was studied on a mouse influenzal pneumonia induced by infecting the animals intranasally with influenza A virus (Bethezda) 63 (H2 N2), A (Aichi) (H3 N2) and on a generalized mouse herpes, induced by intranasal infection of them with herpes simplex virus from antigen-type I L2 -strain.
A single administration of the preparation per os in the dose of 30 mg/kg 24 hours prior to infection prevents the death of 40% of animals suffering from a generalized herpetic infection.

[16] = system: interferon; assay: Interferon induction in human blood serum; assay type: in vivo
[17] = system: peritoneal macrophages; assay: Absorbing capacity of mouse peritoneal macrophages (neutral red); assay type: in vivo, mice; set-up: Absorbing Capacity, percent of control: concentration or dose not given beside the values
[18] = system: antibody-producing cells; assay: Antibody-producing cells in the spleen of mice immunized with sheep erythrocytes; assay type: in vivo; set-up: immune response against the control: concentration or dose not given beside the values
[19] = system: stem cells; assay: Inactivation of stem cells with allogenic lymphocytes (graft versus host, spleen endocolonies); assay type: in vivo, mice
[20] = system: sarcoma-45; assay: Development of grafted sarcoma-45; assay type: in vivo, rats; conditions: for Sarcoma growth: 125 mg/kg daily during 5 days, p < 0.05
Source text: Control animals were given only a starch solution. The dynamic development of the tumor was monitored by intravital measurements of its mass.

[21] = Effect on thermal skin lesion; conditions: in vivo
[22] = system: lymphocytes; assay type: in vivo, human
[23] = Prolonged administration to animals; assay type: in vivo
[24] = patients with influenza virus infection
[25] = 31.2 mg/kg per os 24 and 6 hours before infecting
[26] = 62.5 mg/kg per os 24 and 6 hours before infecting
[27] = 125 mg/kg per os 24 and 6 hours before infecting
[28] = 1 day after single administration
[29] = 2 day after single administration
[30] = single 100 mg and 300 mg daily per os

CCOC(=O)c1c(CSc2ccccc2)n(C)c2cc(Br)c(O)c(CN(C)C)c12.Cl.O [preparation of the invention, ethyl 6-bromo-5-hydroxy-4-dimethylaminomethyl-1-methyl-2-phenylthiomethylindole-3-carboxylate hydrochloride monohydrate]
hygroscopicity [1]: non-hydroscopic
pH of solution ([1]; 1 g of the compound in 1450 ml of water at 25° C., potentiometrically): 4.37
behaviour when heated ([1]; heated for 3 hours at 110° to 120° C.): looses the molecule of H2 O
solubility in water, methanol, ethanol ([1]; water, methanol, ethanol): poorly soluble
inhibition of influenza A/B virus reproduction / chemotherapeutical effect ([2]; hydrochloride monohydrate): shows a pronounced chemotherapeutical effect; also recorded: Inhibits the reproduction
stage at which the virus-inhibiting effect is expressed ([2]; single-stage infection, 5 μm/ml, reducing infectivity titer and suppressing plague-forming activity): early stages of influenza viruses reproduction in cells: adsorption, penetration and probably deproteinization
virucidal action on influenza viruses [3]: No virucidal action
MNTC [4]: 20 µg/mL
pathological changes [5]: did not cause any pathological changes
pathological changes [6]: did not cause any pathological changes
pathological changes [7]: did not cause any pathological changes
localized irritant action [8]: no localized irritant action
allergizing action [9]: did not exert an allergizing action
allergizing action [10]: did not exert an allergizing action
mutagenic activity [11]: no mutagenic activity
therapeutical efficacy against influenza A/B virus infection ([12]; human, in vivo, po): has the therapeutical effect on influenza A/B virus infections; also recorded: shortening the febrile period, intoxication and catarrhal conditions as well as by shortening the illness duration
frequency of chronic disease exacerbations [12, 24]: considerably decreases the frequency of chronic disease exacerbations; also recorded: decreased considerably the frequency of chronic disease exacerbations
postinfluenzal complications [12, 24]: prevents from post-influenzal complications; also recorded: prevented the development of postinfluenzal complications
Interferon titer ([13]; 8 hours): 640-1280 U/ml
maximum interferon titer ([13]; 24 hours): 2560 U/ml
Interferon titer ([13]; by 48 hours): 320 U/ml
interferon induction on repeated administering ([14]; mice, repeated administering): a depressed reactivity state condition occurs in the animals
Interferon titer ([14]; per os, 62.5 mg/kg, after 16 h): 320-640 U/ml
Interferon titer ([14]; per os, 62.5 mg/kg, after 24 h): 640 U/ml
Interferon titer ([14]; per os, 62.5 mg/kg, after 48 h): 160 U/ml
Interferon titer ([14]; per os, 62.5 mg/kg, after 72 h): 40 U/ml
Interferon titer ([14]; per os, 125 mg/kg, after 16 h): 640 U/ml
Interferon titer ([14]; per os, 125 mg/kg, after 24 h): 320-640 U/ml
Interferon titer ([14]; per os, 125 mg/kg, after 48 h): 640 U/ml
Interferon titer ([14]; per os, 125 mg/kg, after 72 h): 160 U/ml
Interferon titer ([14]; per os, 250 mg/kg, after 16 h): 320-540 U/ml
Interferon titer ([14]; per os, 250 mg/kg, after 24 h): 640-1280 U/ml
Interferon titer ([14]; per os, 250 mg/kg, after 48 h): 320 U/ml
Interferon titer ([14]; per os, 250 mg/kg, after 72 h): 160 U/ml
high interferon titers in mouse blood serum ([14]; per os, 250 to 62.5 mg/kg, 16 hours, persisted up to 48 hours): 640 U/ml
Lethality [15, 25]: 30%
The decrease of lethality [15, 25]: 40%
Lethality: absolute animal number [15, 25]: 12/40
lowering of lethality as compared to control ([15]; 31.2 mg/kg to 125 mg/kg per os 24 and 6 hours before infecting): 40-50%
Lethality [15, 26]: 20%
The decrease of lethality [15, 26]: 50%
Lethality: absolute animal number [15, 26]: 8/40
Lethality [15, 27]: 20%
The decrease of lethality [15, 27]: 50%
Lethality: absolute animal number [15, 27]: 8/40
volunteers with interferon induction ([16]; 3-times administration (300 mg), all 12): 100%
Interferon titer ([16]; 3 times per day (300 mg)): 160-320 U/ml
The number of positive reactions ([16]; 3 times per day (300 mg), 12 men): 12
The number of positive reactions ([16]; 6 times per day during 2 days (600 mg), 12 men): 12
Interferon titer ([16]; during 2 days (600 mg)): 40-80 U/ml
development of hyporeactivity on increase in dose and duration ([16]; increase in dose and duration of administration): development of hyporeactivity in human beings
Interferon titer ([16]; single administration (100 mg)): 40-80 U/ml
The number of positive reactions ([16]; single administration per day (100 mg), 13 men): 8
volunteers with interferon induction ([16]; single per os 100 mg, 8 out of 13): 61.5%
Absorbing Capacity of Peritoneal Macrophages [17, 28]: 27.7 ± 3.5 mg/6 × 10^6 cells
Absorbing Capacity, percent of control [17, 28]: 125 ± 17%
Absorbing Capacity of Peritoneal Macrophages [17, 29]: 33.6 ± 4.7 mg/6 × 10^6 cells
Absorbing Capacity, percent of control [17, 29]: 147 ± 20.6%
Absorbing Capacity of Peritoneal Macrophages ([17]; 3 day after single administration): 37.4 ± 3.7 mg/6 × 10^6 cells
absorbing capacity of macrophages ([17]; by 2-3 days after a single administration, p<0.05): 164±13%
stimulation of absorbing capacity of macrophages ([17]; in vivo): stimulates the absorbing capacity of macrophages to a greater extent than administration of levamisole
effect on counts of macrophages washed off the peritoneal cavity ([17]; mouse, in vivo): no effect on counts of macrophages
immunopotentiating effect on tumor-carrier animals ([18]; 7-17 day of tumor development, single (3 days prior to immunization) or 5-times daily): immunopotentiating effect on tumor-carrier animals
Antibody-producing cells in spleen (% of control) ([18]; intact mice, a single use): 246 ± 6.0%
Antibody-producing cells in spleen (% of control) ([18]; intact mice, during 3 days, daily): 141 ± 13%
Antibody-producing cells in spleen (% of control) ([18]; intact mice, during 5 days, daily): 192 ± 14.0%
immunostimulating effect on irradiated animals ([18]; irradiated animals): pronounced immunostimulating effect
immune response against the control ([18]; irradiated animals, administered 3 days prior to irradiation): 230%
stimulation of antibody genesis, compared with reference standards ([18]; mice, intact and irradiated): superior over reference standards--levamisole and a double-stranded RF2 phage RNA
Antibody-producing cells in spleen (% of control) ([18]; totally irradiated (2 Gr.), 5 times in 3 days): 96 ± 20.0%
Antibody-producing cells in spleen (% of control) ([18]; totally irradiated (2 Gr.), a single use): 230 ± 12.0%
Antibody-producing cells in spleen (% of control) ([18]; totally irradiated (2 Gr.), during 3 days, daily): 129 ± 19%
Antibody-producing cells in spleen (% of control) ([18]; totally irradiated (2 Gr.), during 5 days, daily): 181 ± 11.3%
immunopotentiating effect on totally irradiated tumor-carrier animals ([18]; totally irradiated tumor-carriers): pronounced immunopotentiating effect
Antibody-producing cells in spleen (% of control) ([18]; totally irradiated tumor-carriers (2 Gr.), 5 times in 3 days): 250 ± 21.5%
Antibody-producing cells in spleen (% of control) ([18]; totally irradiated tumor-carriers (2 Gr.), during 3 days, daily): 121 ± 25%
Antibody-producing cells in spleen (% of control) ([18]; totally irradiated tumor-carriers (2 Gr.), during 5 days, daily): 128 ± 28.5%
Antibody-producing cells in spleen (% of control) ([18]; tumor-carriers, 5 times in 3 days): 110 ± 11.0%
Antibody-producing cells in spleen (% of control) ([18]; tumor-carriers, a single use): 211 ± 10.0%
Antibody-producing cells in spleen (% of control) ([18]; tumor-carriers, during 3 days, daily): 99 ± 19%
The counts of spleen endocolonies (M ± m) ([19]; 1.25 × 10^6 lymphocytes): 2.5 ± 0.4
The counts of spleen endocolonies (M ± m) ([19]; 2.5 × 10^6 lymphocytes): 1.6 ± 0.2
The counts of spleen endocolonies (M ± m) ([19]; 5.0 × 10^6 lymphocytes): 0.3 ± 0.1
effect on yield of spleen colonies under graft versus host conditions ([19]; preparation 100 mg per 1 kg orally, levamisole 5 mg per 1 kg, hydrochloride monohydrate): reduces both observed deviations as compared to control values if the concentration of introduced cells is not the highest; also recorded: normalizes the proliferative activity of target cells and their ability of producing a vital colony
Sarcoma growth ([20]; 1 month 10 days after grafting): 21.0 ± 3.9 cm^3
Sarcoma growth ([20]; 1 month 16 days after grafting): 38.0 ± 7.5 cm^3
Sarcoma growth ([20]; 1 month after grafting): 8.2 ± 1.4 cm^3
Sarcoma growth ([20]; 2 months after grafting): 39.9 ± 9.7 cm^3
effect on development of the tumor ([20]; 12 month period of observation, hydrochloride monohydrate): inhibition of the development of tumor was found; also recorded: inhibitory effect on the development of a massive tumor
effect on a thermal skin lesion [21]: exert a thermoprotective action and reduce a thermal skin lesion
bonding receptors with the outer lymphocyte membrane [22, 30]: leads to changes in bonding receptors with the outer lymphocyte membrane
counts of T-populations [22, 30]: fails to change the counts of T-populations
persistence of changes in bonding receptors ([22]; time of observation): 14 days
effect of vaccination on the nature of changes of bonding receptors ([22]; vaccination 24 hours after administering): no effect on the nature of changes of bonding receptors
alternations in parenchymatous organs [23]: may cause in animals the development of non-specific degenerative alternations in parenchymatous organs
